Consider 13 molecules from EP0200024B1, “3-Cyano-pyridines, process for their preparation and their pharmaceutical use” (ARZNEIMITTELWERK DRESDEN GmbH, priority 1985, dated 1986).

For experiment [1], the system named is Isolierter, spontanaktiver Vorhof des Meerschweinchens. Put plainly: Isolated, spontaneously active atrium (inotropy and frequency). The arrangement: species or system Meerschweinchen. The conditions noted are these: for EC30: Tyrode solution according to A.A. Alousi et al., 32 °C, read-out: 30%ige Steigerung der Inotropie bei Konzentrationen von; for positiv inotrope Wirkung / chronotrope Wirkung: result in words. The procedure:
Für die Versuche wurden männliche Meerschweinchen mit einer Körpermasse von 400-500 g verwendet. Am isolierten, spontanaktiven Vorhof erfolgte nach einer 60 Min. währenden Adaptationszeit der Organpräparate in 32 °C temperierter carbogen-durchperlter Tyrodelösung die Untersuchung der Beeinflussung von Inotropie und Frequenz unter Einwirkung der 3-Cyan-2-(heteroalkyl-1-hetero)-pyridine der Formel I. Eine Reihe von Verbindungen zeigte eine starke und dosisabhängige positiv inotrope Wirkung. Bei Verwendung einer Tyrodelösung nach A.A. Alousi et al. [Circ. Res. 45, 666 (1979)] zeigen beispielsweise die Verbindungen von Beispiel 1.2, 1.7, 1.27, 3.3, 3.4, 3.5, 4.1 bzw. 4.3 eine 30%ige Steigerung der Inotropie bei Konzentrationen von 5,6 · 10⁻⁵, 5,4 · 10⁻⁶, 5,0 · 10⁻⁵, 5,8 · 10⁻⁵, 9,1 · 10⁻⁵, 1,6 · 10⁻⁴, 3,5 · 10⁻⁵ und 5,4 · 10⁻⁵ mol/l. Die Verbindung von Beispiel 1.27 zeigt bei einer Konzentration von 5 · 10⁻⁵ mol/l eine Abnahme der Frequenz um 15 %. Die Verbindung von Beispiel 1.8 zeigt bei Verwendung einer Tyrodelösung mit der Zusammensetzung (mmol/l): NaCl 136,9; KCl 2,7; CaCl₂ 1,8; MgCl₂ 1,0; NaHCO₃ 11,9; NaH₂PO₄ 0,4; Glucose 16,5 eine 30%ige Steigerung der Inotropie bei einer Konzentration von 1,2 · 10⁻⁴ mol/l.

Another experiment relates to Narkotisierter Hund. In words: Anaesthetised dog i.v. (left ventricular pressure dp/dtmax, arterial pressure). The class given is in vivo, Bastardhunden. As to conditions: for ED10 / ED50: Canis lupus familiaris, iv; for ED10: read-out: 10%ige Senkung des diastolischen Blutdruckes bei einer Dosis von; for ED50: read-out: 50%ige Steigerung des Kontraktilitätsparameters dp/dtmax bei einer Dosis von; for Steigerungen des Kontraktilitätsparameters dp/dtmax: result in words. From the text:
Die Untersuchungen wurden an Bastardhunden in Chloralose-Urethan-Narkose bei Prämedikation mit Morphinhydrochlorid unter spontaner Atmung durchgeführt. . Der linksventrikuläre Druck wurde mittels Tipmanometer und der arterielle Druck wurde über Herzkatheter via A. brachialis gemessen [vgl. K. Femmer et al., Pharmazie 30 642 (1975)]. Unter dem Einfluß der 3-Cyan-2-(heteroalkyl-1-hetero)-pyridine der Formel I wurden eine dosisabhängige beträchtliche. Steigerung der Kontraktionskraft des Herzens sowie teilweise eine signifikante Senkung des peripheren Gesamtwiderstandes beobachtet. So zeigen beispielsweise die Verbindungen von Beispiel 3.2, 4.1, 4.3 und 4.5 eine 50%ige Steigerung des Kontraktilitätsparameters dp/dtmax bei einer Dosis von 6,1 · 10⁻⁶, 1,4 · 10⁻⁶, 2,5 · 10⁻⁶ bzw. 2.0 · 10⁻⁶ mol/kg sowie eine 10%ige Senkung des diastolischen Blutdruckes als relevantes Maß einer Abnahme des peripheren Gesamtwiderstandes bei einer Dosis von 2,1 · 10⁻⁶, 1,6 · 10⁻⁶,1,6 · 10⁻⁶ bzw. 1,2 · 10⁻⁶ mol/kg. Die Verbindung von Beispiel 2.1 zeigt bei einer Dosis von 5 mg/kg eine Steigerung von dp/dtmax um 126 % Für die Verbindung von Beispiel 2.1 wurde bei einer Dosis von 5 mg/kg eine Senkung des diastolischen Blutdruckes um 37 % gefunden.

The subject of a further experiment is Langendorff-Herz. Put plainly: Langendorff heart in vitro (isolated perfused, freely beating heart; inotropy, chronotropy, coronary flow). More on the design: species or system Meerschweinchen; activation: dose or concentration left out as unconfirmed. The conditions noted are these: for activation at 10000 µM / activation: 0,1 ml of a 10⁻² molar stock solution into the aorta; for activation at 10000 µM: read-out: Erhöhung der Inotropie; for activation: read-out: Erhöhung des Koronardurchflusses. Here is the method:
Für die Versuche wurden männliche Meerschweinchen mit einer, Körpermasse von 300-350 g eingesetzt. An isolierten, mit carbogenbegaster Tyrodelösung von 37 °C durchströmten, frei schlagenden Herzen, wurden unter konstantem Druck die Kontraktionskraft (Inotropie), die Frequenz (Chronotropie) und der Koronardurchfluß unter dem Einfluß der 3-Cyan-2-(heteroalkyl-1-hetero)-5-(pyrid-4-yl)-pyridine der Formel I untersucht. Dazu wurden jeweils 0,1 ml der entsprechend molaren Substanzlösungen als Bolus direkt in den Aortenstumpf appliziert. Die 3-Cyan-2-(heteraalkyl-1-hetera)-5-(pyrid-4-yl)-pyridine zeigten eine teilweise starke und konzentrationsabhängige positiv inotrope und koronardilatatorische Wirkung. Die positiv chronotrope Wirkung war deutlich geringer, ausgeprägt. Beispielsweise zeigen die Verbindungen der Beispiele 1.2, 1.6, 1.7 und 1.8 eine Erhöhung der Inotropie um 30 % bei Applikation von je 0,1 ml einer 3,0 · 10⁻³, 2,2 · 10⁻², 2,0 · 10⁻⁴ bzw. 1,0 · 10⁻³ molaren Lösung und eine Erhöhung des Koronardurchflusses um 100 % bei Applikation von je 0,1 ml einer 6,0 · 10⁻³, 6,5 · 10⁻², 1,1 · 10⁻² bzw. 1,3 · 10⁻² molaren Lösung. Die Verbindungen der Beispiele 2.2, 2.3 und 2.4 weisen bei Applikation von je 0,1 ml einer 10⁻² molaren Stammlösung in die Aorta eine Erhöhung der Inotropie um 51 %, 38 % und 31 % sowie eine Erhöhung des Koronardurchflusses um 59 %, 99 % bzw. 88 % auf.

Take `Cc1nc(NCCCO)c(C#N)cc1-c1ccncc1` [Beispiel 3.4, 3-Cyan-2-(3-hydroxy-propylamino)-6-methyl-5-(pyrid-4-yl)-pyridin]: in experiment [1], the EC30 came out at 91 µM and the “positiv inotrope Wirkung” value is recorded as “gute und dosisabhängige positiv inotrope Wirkung”.
On to `CC(=O)OCCNc1ncc(-c2ccncc2)cc1C#N` [Beispiel 4.1, 2-(2-Acetoxy-ethylamino)-3-cyan-5-(pyrid-4-yl)-pyridin], for which, in experiment [1], the EC30 was determined as 35 µM and the “positiv inotrope Wirkung” value was “gute und dosisabhängige positiv inotrope Wirkung”. In the experiment on Narkotisierter Hund, the ED10 is 1.6 µmol/kg, the ED50 stood at 1.4 µmol/kg and the “Steigerungen des Kontraktilitätsparameters dp/dtmax” value is listed as “dosisabhängige beträchtliche Steigerungen”.
On to `N#Cc1cc(-c2ccncc2)cnc1OCCO` [Beispiel 2.2, 3-Cyan-2-(2-hydroxy-ethoxy-)-5-(pyrid-4-yl)-pyridin], for which, in the experiment on Langendorff-Herz, the activation at 10000 µM was found to be 51% and the activation turned out to be 59%. In the experiment with Langendorff-Herz (result in words), the “positiv chronotrope Wirkung” value was “relative geringer positiv chronotroper Aktivität” and the “positiv inotrope Wirkung” value is “ausgeprägte und dosisabhängige positiv inotrope Wirkung”. Further, in experiment [1], the “chronotrope Wirkung” value is reported as “relative geringer positiv chronotroper Aktivität” and the “positiv inotrope Wirkung” value is given as “ausgeprägte und dosisabhängige positiv inotrope Wirkung”.
With `N#Cc1cc(-c2ccncc2)cnc1OCCCO` [Beispiel 2.3, 3-Cyan-2-(3-hydroxy-propoxy)-5-(pyrid-4-yl)-pyridin], in the experiment on Langendorff-Herz, the activation at 10000 µM was 38% and the activation came out at 99%.
For the molecule `Cc1nc(N2CCOCC2)c(C#N)cc1-c1ccncc1` [Beispiel 3.2, 3-Cyan-6-methyl-2-morpholino-5-(pyrid-4-yl)-pyridin], in the experiment on Narkotisierter Hund, the ED10 is 2.1 µmol/kg, the ED50 stood at 6.1 µmol/kg and the “Steigerungen des Kontraktilitätsparameters dp/dtmax” value was “dosisabhängige beträchtliche Steigerungen”.
Turning to `Cc1nc(NCCO)c(C#N)cc1-c1ccncc1` [Beispiel 3.3, 3-Cyan-2-(2-hydroxy-ethylamino)-6-methyl-5-(pyrid-4-yl)-pyridin], in experiment [1], the EC30 came to 58 µM and the “positiv inotrope Wirkung” value is on record as “gute und dosisabhängige positiv inotrope Wirkung”.
In the case of `Cc1nc(NCC(C)O)c(C#N)cc1-c1ccncc1` (stereo not shown) [Beispiel 3.5, 3-Cyan-2-(2-hydroxy-propylamino)-6-methyl-5-(pyrid-4-yl)-pyridin], the EC30 in experiment [1] was found to be 160 µM.
With `CCC(=O)OCCNc1ncc(-c2ccncc2)cc1C#N` [Beispiel 4.5, 3-Cyan-2-(2-propionyloxy-ethylamino)-5-(pyrid-4-yl)-pyridin], in the experiment with Narkotisierter Hund, the ED10 came out at 1.2 µmol/kg, the ED50 came to 2 µmol/kg and the “Steigerungen des Kontraktilitätsparameters dp/dtmax” value was “dosisabhängige beträchtliche Steigerungen”.
`Cc1nc(N2CCOCC2)c(C#N)cc1-c1ccccc1` [3-Cyan-6-methyl-2-morpholino-5-phenyl-pyridin]: the “Steigerungen des Kontraktilitätsparameters dp/dtmax” value in the experiment on Narkotisierter Hund is “dosisabhängige beträchtliche Steigerungen”.
On the same count and under the same terms, as for `COc1ccc(-c2cc(C#N)c(N3CCOCC3)nc2C)cc1OC` [3-Cyan-5-(3,4-dimethoxy-phenyl)-6-methyl-2-morpholino-pyridin], the entry is “dosisabhängige beträchtliche Steigerungen”.
As for `CC(O)COc1ncc(-c2ccncc2)cc1C#N` (stereo not shown) [Beispiel 2.4, 3-Cyan-2-(2-hydroxy-propoxy)-5-(pyrid-4-yl)-pyridin], in the experiment with Langendorff-Herz, the activation at 10000 µM was found to be 31% and the activation came out at 88%.
As for `N#Cc1cc(-c2ccncc2)cnc1N1CCN(C(=O)c2ccco2)CC1` [Beispiel 1.27, 3-Cyan-2-[4-(furan-2-yl-carbonyl)-piperazino]-5-(pyrid-4-yl)-pyridin], the inhibition at 50 µM in experiment [1] (Cavia porcellus, at a concentration of 5 · 10⁻⁵ mol/l, read-out: Abnahme der Frequenz) stood at 15%. For the same molecule, in experiment [1], the EC30 turned out to be 50 µM, the “chronotrope Wirkung” value is given as “negativ chronotroper Wirkung” and the “positiv inotrope Wirkung” value is listed as “gute positiv inotrope Wirkung”.
For the molecule `COCCOc1ncc(-c2ccncc2)cc1C#N` [Beispiel 2.1, 3-Cyan-2-(2-methoxy-ethoxy)-5-(pyrid-4-yl)-pyridin], in the experiment on Narkotisierter Hund (dose 5 mg/kg), the “Senkung des diastolischen Blutdruckes” value came out at 37% and the Steigerung von dp/dtmax came to 126%.
